This is an account of results in ChEMBL document CHEMBL5346893, “1,2,4-Amino-triazine derivatives as pyruvate dehydrogenase kinase inhibitors: Synthesis and pharmacological evaluation” (Eur J Med Chem, 2023).

The term residual activity denotes the share of the control activity or signal that is left under treatment. One may read the pIC50 as the negative decadic logarithm of the IC50, by convention in mol/L. Broadly, the inhibition is the change of the read-out against control, counted positive when it falls. As a reminder, the IC50 is the concentration that inhibits the measured activity by half.

The target in series [1] is T1, [Pyruvate dehydrogenase (acetyl-transferring)] kinase isozyme 1, mitochondrial (Homo sapiens, UniProt Q15118). The series is described as follows: Inhibition of PDK1 (unknown origin) at 1.5 uM incubated for 30 mins followed by substrate addition measured after 60 mins in presence of ATP by ADP-Glo luminescent assay relative to control. The note with it: time 90.0 min, values are per cent of control. On the technique in general: ADP-Glo first removes unused ATP, then detects ADP through luciferase.
T1 sequence (Q15118 whole entry): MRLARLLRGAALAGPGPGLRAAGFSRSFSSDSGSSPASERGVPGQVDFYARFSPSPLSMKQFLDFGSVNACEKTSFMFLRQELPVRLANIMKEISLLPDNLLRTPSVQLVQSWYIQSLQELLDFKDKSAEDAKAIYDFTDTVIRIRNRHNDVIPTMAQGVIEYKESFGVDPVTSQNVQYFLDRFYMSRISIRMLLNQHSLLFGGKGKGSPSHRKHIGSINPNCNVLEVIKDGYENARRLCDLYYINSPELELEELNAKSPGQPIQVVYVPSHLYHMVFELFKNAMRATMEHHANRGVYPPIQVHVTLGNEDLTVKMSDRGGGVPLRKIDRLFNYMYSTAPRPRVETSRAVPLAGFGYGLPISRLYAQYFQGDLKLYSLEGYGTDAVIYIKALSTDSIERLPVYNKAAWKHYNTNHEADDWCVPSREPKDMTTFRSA

The target in series [2] is T1, [Pyruvate dehydrogenase (acetyl-transferring)] kinase isozyme 1, mitochondrial. Briefly: Inhibition of PDK1 (unknown origin) incubated for 30 mins followed by substrate addition measured after 60 mins in presence of ATP by ADP-Glo luminescent assay.
For series [3], the target named is [Pyruvate dehydrogenase (acetyl-transferring)] kinase isozyme 4, mitochondrial (Homo sapiens) (UniProt Q16654). The series is described as follows: Inhibition of PDK4 (unknown origin) at 1.5 uM incubated for 30 mins followed by substrate addition measured after 60 mins in presence of ATP by ADP-Glo luminescent assay relative to control. The note with it: time 90.0 min.
Sequence of [Pyruvate dehydrogenase (acetyl-transferring)] kinase isozyme 4, mitochondrial (Homo sapiens) (Q16654 whole entry, looked up): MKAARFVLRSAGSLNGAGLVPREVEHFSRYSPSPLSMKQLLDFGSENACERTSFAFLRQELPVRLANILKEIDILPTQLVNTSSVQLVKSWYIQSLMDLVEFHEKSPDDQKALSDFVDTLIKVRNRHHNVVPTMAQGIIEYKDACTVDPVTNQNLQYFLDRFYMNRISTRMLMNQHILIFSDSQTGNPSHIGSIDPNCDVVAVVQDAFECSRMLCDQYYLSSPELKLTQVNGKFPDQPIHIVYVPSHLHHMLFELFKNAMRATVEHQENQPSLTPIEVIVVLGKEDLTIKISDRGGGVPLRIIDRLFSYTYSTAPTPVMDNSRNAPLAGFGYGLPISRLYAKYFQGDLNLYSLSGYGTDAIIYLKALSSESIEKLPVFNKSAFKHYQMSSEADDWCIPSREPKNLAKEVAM

Series [4] addresses T2, Heat shock protein HSP90 (Homo sapiens, UniProt P07900+P08238). The series is described as follows: Inhibition of human recombinant HSP90 at 1.5 uM incubated for 30 mins by fluorescence polarization based analysis relative to control. The class given is protein assay. A general note: Polarisation of emitted light reports the rotation of a fluorescent probe.
In series [5] the test system is BXPC-3. The series is described as follows: Antiproliferative activity against human BXPC-3 cells expressing wild type KRAS cultured as 2D spheroids assessed as inhibition of cell growth measured after 72 hrs by MTT assay. The class given is functional, cell-based. The note with it: BXPC-3, 72 h.
Series [6] concerns PSN1. The series is described as follows: Antiproliferative activity against human PSN1 cells expressing KRAS mutant cultured as 2D spheroids assessed as inhibition of cell growth measured after 72 hrs by MTT assay. The note with it: PSN1, 72 h. The format is functional, cell-based. Background: Tetrazolium dyes change colour on reduction, which living cells bring about.
Series [7] has as its system BXPC-3. Briefly: Antiproliferative activity against human BXPC-3 cells expressing wild type KRAS cultured as 3D spheroids assessed as inhibition of cell growth measured after 72 hrs by MTT assay. The class given is functional, cell-based. The note with it: BXPC-3, 72 h.
For series [8], the system named is PSN1. Briefly: Antiproliferative activity against human PSN1 cells expressing KRAS mutant cultured as 3D spheroids assessed as inhibition of cell growth measured after 72 hrs by MTT assay. The note with it: PSN1, 72 h. The format is functional, cell-based.
Series [9] has as its system PSN1. Briefly: Downregulation of PDHA1 phosphorylation in human PSN1 cells at IC50 incubated for 24 hrs by ELISA assay. The class given is functional, cell-based.
Series [10] relates to PSN1. Briefly: Inhibition of PDK in human PSN1 cells expressing KRAS mutant assessed as increase in cellular oxygen consumption at IC50 incubated for 60 mins by fluorescence based analysis. The format is cell-based.
For series [11], the system named is PSN1. Briefly: Inhibition of PDK in human PSN1 cells expressing KRAS mutant assessed as decrease in lactate production levels at IC50 incubated for 60 mins by colorimetric analysis. The format is cell-based.
Series [12] relates to PSN1. Briefly: Induction of reactive oxygen species production in human PSN1 cells assessed as increase in cellular hydrogen peroxide formation at 5 uM by CM-H2DCFDA staining based analysis. The class given is functional, cell-based.
Series [13] has as its system PSN1. Briefly: Induction of reactive oxygen species production in human PSN1 cells assessed as decrease in total cellular sulfhydryls level at IC50 incubated for 24 hrs by DTNB reagent based spectrophotometric analysis. The class given is functional, cell-based.
Series [14] has as its system PSN1. The series is described as follows: Induction of mitochondrial membrane potential loss in human PSN1 cells at IC50 incubated for 60 mins by fluorescence based analysis. The class given is functional.
Series [15] in a line: In vivo antitumor activity against mouse Lewis lung carcinoma cell line implanted in C57BL mouse assessed as tumor growth inhibition at 60 mg/kg, ip administered daily on day 7 to 14 measured after 15 days. The format is functional. The note with it: 360 h, time 15 day, read-out: TGI.
In series [16] the target is [Pyruvate dehydrogenase (acetyl-transferring)] kinase isozyme 2, mitochondrial (Homo sapiens) (UniProt Q15119). The series is described as follows: Inhibition of PDK2 (unknown origin) at 1.5 uM incubated for 30 mins followed by substrate addition measured after 60 mins in presence of ATP by ADP-Glo luminescent assay relative to control. The note with it: time 90.0 min.

Series [17] concerns the target T2, Heat shock protein HSP90. Briefly: Inhibition of human recombinant HSP90 incubated for 30 mins by fluorescence polarization based analysis. The format is protein assay.
The subject of series [18] is PSN1. Briefly: Induction of mitochondrial damage in human PSN1 cells assessed as increase in mitochondria substantial swelling at IC50 incubated for 24 hrs by staining based TEM analysis. The class given is functional, cell-based.
Series [19] relates to PSN1. Briefly: Induction of mitochondrial damage in human PSN1 cells assessed as decrease in mitochondria inner membrane electron density at IC50 incubated for 24 hrs by staining based TEM analysis. The class given is functional, cell-based.
The test system of series [20] is PSN1. Briefly: Induction of mitochondrial damage in human PSN1 cells assessed as decrease in mitochondria matrix region electron density at IC50 incubated for 24 hrs by staining based TEM analysis. The format is functional, cell-based.
Series [21] relates to PSN1. The series is described as follows: Induction of mitochondrial damage in human PSN1 cells assessed as increase in disruption of cristae at IC50 incubated for 24 hrs by staining based TEM analysis. The class given is functional, cell-based.
Series [22] has as its system PSN1. The series is described as follows: Induction of apoptosis in human PSN1 cells assessed as brightly stained nuclei at IC50 incubated for 48 hrs by Hoechst 33258 staining based confocal microscopic analysis. The format is functional, cell-based.
The subject of series [23] is PSN1. Briefly: Induction of apoptosis in human PSN1 cells assessed as chromatin condensation at IC50 incubated for 48 hrs by Hoechst 33258 staining based confocal microscopic analysis. The format is functional, cell-based.
The target of series [24] is [Pyruvate dehydrogenase (acetyl-transferring)] kinase isozyme 3, mitochondrial (Homo sapiens) (UniProt Q15120). The series is described as follows: Inhibition of PDK3 (unknown origin) at 1.5 uM incubated for 30 mins followed by substrate addition measured after 60 mins in presence of ATP by ADP-Glo luminescent assay relative to control. The note with it: time 90.0 min.
Sequence of [Pyruvate dehydrogenase (acetyl-transferring)] kinase isozyme 3, mitochondrial (Homo sapiens) (Q15120 whole entry, looked up): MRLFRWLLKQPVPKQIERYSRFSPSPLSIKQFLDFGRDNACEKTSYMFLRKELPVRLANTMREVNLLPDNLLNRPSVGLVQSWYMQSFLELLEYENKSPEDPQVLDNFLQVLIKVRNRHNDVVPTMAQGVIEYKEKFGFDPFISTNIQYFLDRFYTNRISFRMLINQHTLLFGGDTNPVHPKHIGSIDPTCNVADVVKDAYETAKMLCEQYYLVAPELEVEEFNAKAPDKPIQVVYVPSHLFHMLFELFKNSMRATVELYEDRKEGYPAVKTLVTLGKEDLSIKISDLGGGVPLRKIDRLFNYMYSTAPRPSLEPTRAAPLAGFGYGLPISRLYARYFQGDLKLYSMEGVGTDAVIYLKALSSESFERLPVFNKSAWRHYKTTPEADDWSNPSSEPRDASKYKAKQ

The nature of series [25]: In vivo antitumor activity against mouse Lewis lung carcinoma cell line implanted in C57BL mouse assessed as tumor growth inhibition at 20 mg/kg, ip administered daily on day 7 to 14 measured after 15 days. The format is functional. The note with it: 360 h, time 15 day, read-out: TGI.
Series [26] can be described thus: Toxicity in C57BL mouse implanted with mouse Lewis lung carcinoma cell line assessed as reduction in body weight loss at 20 mg/kg, ip administered daily on day 7 to 14 measured after 15 days. The format is organism-based. The note with it: in vivo, 360 h, time 15 day.
A short description of series [27]: Toxicity in C57BL mouse implanted with mouse Lewis lung carcinoma cell line assessed as anorexia at 20 mg/kg, ip administered daily on day 7 to 14 measured after 15 days. The format is organism-based. The note with it: in vivo, 360 h, time 15 day.
Another series concerns Lewis lung carcinoma. Briefly: In vivo antitumor activity against mouse Lewis lung carcinoma cell line implanted in C57BL mouse assessed as reduction in PDHA1 phosphorylation at 20 mg/kg, ip administered daily on day 7 to 14 measured after 15 days by ELISA assay. The note with it: time 15.0 day. The format is functional, organism-based.

pIC50: −log10 of the molar value. Activity calls are given as the source filed them. The rule behind the calls is not given here.

For `Cn1cc(-c2nc(N)nnc2-c2c[nH]c3ccc(F)cc23)c2cc(Br)cnc21`, the residual activity in series [1] is 60%. Further, the negative logarithm of the IC50 (pIC50) in series [2] was 6.82; with BXPC-3 [5], 6.70; with PSN1 [6], 5.64; with BXPC-3 [7], 5.30; with PSN1 [8] it was 5.08. Moreover, the inhibition (in [3]; at Heat shock protein HSP90 [4]) was 60% each time. Moreover, the result with PSN1 [9], in the series on PSN1 [12], in the series on PSN1 [13] and in the series with PSN1 [14] was Active. Further, the inhibition entry with PSN1 [10] and in the series with PSN1 [11] was “Active” in each case.
Take `Nc1ccn([C@@H]2O[C@H](CO)[C@@H](O)C2(F)F)c(=O)n1` [GEMCITABINE]: the negative logarithm of the IC50 (pIC50) with BXPC-3 [5] is 7.00; in the series with PSN1 [6], 7.70. For the same compound, in series [15], the inhibition in vivo at 60 mg/kg turned out to be 80%.
Take `Cn1cc(-c2nc(N)nnc2-c2c[nH]c3ccc(Br)cc23)c2cc(Br)cnc21`: the residual activity in series [1] is 0%. The negative logarithm of the IC50 (pIC50) in [2] is 7.22; with BXPC-3 [5] it was 6.15; in the series on PSN1 [6], 5.96; in the series on BXPC-3 [7] it was 5.22; in the series on PSN1 [8], 4.62. For the same compound, the inhibition in [3] was 0%; in series [16], 100%; on Heat shock protein HSP90 [4] it was 40%. Moreover, the outcome with PSN1 [9], in the series on PSN1 [12], in the series on PSN1 [13] and in the series on PSN1 [14] was Active. The inhibition result in the series with PSN1 [10] and in the series with PSN1 [11] was “Active” throughout.
As to `Cn1cc(-c2nnc(N)nc2-c2c[nH]c3ccc(Br)cc23)c2cc(Br)cnc21`, the residual activity in series [1] stood at 60%. Also, the negative logarithm of the IC50 (pIC50) in series [2] is 6.68; in the series with BXPC-3 [5], 7.00; with PSN1 [6] it was 5.89; in the series on BXPC-3 [7] it was 4.61; with PSN1 [8] it was 4.41. Besides, the inhibition in series [3] came out at 60%; in series [16], 100%; on Heat shock protein HSP90 [4] it was 40%. For the same compound, the IC50 on Heat shock protein HSP90 [17] came out at 1400 nM. The outcome with PSN1 [9], in the series with PSN1 [12], in the series with PSN1 [13] and in the series with PSN1 [14] was Active. Moreover, the inhibition entry in the series with PSN1 [10] and with PSN1 [11] was “Active” each time.
Consider `Cn1cc(-c2nnc(N)nc2-c2c[nH]c3ccc(F)cc23)c2cc(Br)cnc21`, for which the residual activity in series [1] was 0%. Besides, the pIC50 was 7.22 in [2]; 6.70 with BXPC-3 [5]; 6.22 with PSN1 [6]; 5.16 in the series with BXPC-3 [7]; 4.95 with PSN1 [8]. Moreover, the values for the inhibition (in [3]; in series [16]; at Heat shock protein HSP90 [4]) were 0%, 100% and 60%, respectively. Moreover, the outcome with PSN1 [9], with PSN1 [12], in the series with PSN1 [13], in the series on PSN1 [14], in the series with PSN1 [18] and in the series with PSN1 [19] was Active. For the same compound, the result in the series with PSN1 [20], with PSN1 [21], in the series on PSN1 [22] and with PSN1 [23] was Active. The inhibition entry with PSN1 [10] and in the series with PSN1 [11] was “Active” each time.
As for `COc1ccc2[nH]cc(-c3nnc(N)nc3-c3cn(C)c4ncc(Br)cc34)c2c1`, the residual activity in [1] was found to be 0%. Further, the pIC50 in series [2] was 7.52; with BXPC-3 [5], 7.00; with PSN1 [6], 6.00; with BXPC-3 [7] it was 5.48; with PSN1 [8] it was 4.92. Further, the inhibition in [3] came out at 0%; in series [16] it was 100%; in [24], 100%; at Heat shock protein HSP90 [4] it was 0%. Besides, on Heat shock protein HSP90 [17], the IC50 came out at 100 nM. In addition, the outcome with PSN1 [9], in the series with PSN1 [12], in the series on PSN1 [13], in the series on PSN1 [18], in the series with PSN1 [19] and with PSN1 [20] was Active. In addition, the outcome in the series with PSN1 [21], in the series on PSN1 [22], in the series with PSN1 [23] and with Lewis lung carcinoma was Active. Besides, the inhibition entry in the series on PSN1 [10] and with PSN1 [11] was “Active” in each case. Further, the Activity in the series with PSN1 [14] (1 h) is given as 45%; in series [26] it was “Non-Toxic”; in [27] it was ~ 20%. Moreover, the inhibition in vivo at 20 mg/kg in series [25] is 86%.
